Data published in patent US10874745B2, “Antimicrobial peptides and methods of treating gram-negative pathogens: polar and non-polar face analogs” (priority 2017, dated 2020).
In brackets after ≈: the same amount, converted by molar mass. Where two headings read alike, the source gives them in different places.

Experiments:
[1] = system: MRSA; assay: Resistance profile of MRSA strains; type: cell-based, Staphylococcus aureus; parameters: key: R denotes resistant; S denotes sensitive
[2] = system: MSSA; assay: Resistance profile of MSSA strains; type: cell-based, Staphylococcus aureus; parameters: key: R denotes resistant; S denotes sensitive
[3] = system: A. baumannii strains resistant to Polymyxin B and Colistin; type: cell-based
Text: Gram-Negative Bacterial Strains used in this Study: All the A. baumannii strains used in this study were 1) obtained from the collection of Dr. Anthony A. Campagnari at the University of Buffalo and originally isolated from different patients and organs/tissues (strain 649, blood; strain 689, groin; strain 759, gluteus; strain 884, axilla; strain 985, pleural fluid); 2) were purchased from the American Type Culture Collection (ATCC, Manassas, Va., USA) (strain ATCC 17978, fatal meningitis; and strain ATCC 19606, urine); 3) obtained from MERCK (M89941, M89949, M89951, M89952, M89953, M89955 and M89963). These seven A. baumannii strains were resistant to polymyxin B and polymyxin E (Colistin).
Measurement of Antimicrobial Activity (MIC): The minimal inhibitory concentration (MIC) is defined as the lowest peptide concentration that inhibited bacterial growth. MICs were measured by a standard microtiter dilution method in Mueller Hinton (MH) medium. Briefly, cells were grown overnight at 37° C. in MH broth and were diluted in the same medium. […] The plates were incubated at 37° C. for 24 h, and the MICs were determined.

[4] = Hemolytic activity; type: cell-based, human; details: human, 1% human erythrocytes (red blood cells), pH 7.4
Method: Hemoglobin release was determined spectrophotometrically at 570 nm. […] […] […] With the peptides used in this study the inventors used the HC30/MIC ratio value to calculate the therapeutic index.

Row | Compound | Antibiotic Susceptibility ([1]; MRSA strain M21742 (Nose)) | Antibiotic Susceptibility ([1]; MRSA strain M21756 (Nose)) | Antibiotic Susceptibility ([1]; MRSA strain M22111 (Ear)) | Antibiotic Susceptibility ([1]; MRSA strain M22130) | Antibiotic Susceptibility ([1]; MRSA strain M22224 (Leg)) | Antibiotic Susceptibility ([1]; MRSA strain M22354) | Antibiotic Susceptibility ([1]; MRSA strain M22360 (Labia)) | Antibiotic Susceptibility ([1]; MRSA strain M22424 (Arm)) | Antibiotic Susceptibility ([2]; MSSA strain BL7429 (Blood)) | Antibiotic Susceptibility ([2]; MSSA strain M21913 (Finger)) | Antibiotic Susceptibility ([2]; MSSA strain M22075 (Axilla)) | Antibiotic Susceptibility ([2]; MSSA strain M22097 (Neck)) | Antibiotic Susceptibility ([2]; MSSA strain M22274 (Spine)) | Antibiotic Susceptibility ([2]; MSSA strain M22287 (Hip)) | Antibiotic Susceptibility ([2]; MSSA strain M22300 (Finger)) | Antibiotic Susceptibility ([2]; MSSA strain M22312 (Finger)) | Antibiotic Susceptibility ([2]; MSSA strain M22315) | MIC ([3]; strain MB9941 (Table 9C)) [µM] | MIC ([3]; strain MB9949 (Table 9C)) [µM] | MIC ([3]; strain MB9951 (Table 9C)) [µM] | other results
1 | CCC[C@@H]1C[C@@H](C(=O)N[C@@H]([C@H]2O[C@H](SC)[C@H](O)[C@@H](O)[C@H]2O)[C@H](C)Cl)N(C)C1 [Clindamycin] | S | S | R | S | S | S | S | S^c | S | S | S | S | S | S | S | S | S | – | – | – | –
2 | CC[C@H]1OC(=O)[C@H](C)[C@@H](O[C@H]2C[C@@](C)(OC)[C@@H](O)[C@H](C)O2)[C@H](C)[C@@H](O[C@@H]2O[C@H](C)C[C@H](N(C)C)[C@H]2O)[C@](C)(O)C[C@@H](C)C(=O)[C@H](C)[C@@H](O)[C@]1(C)O [Erythromycin] | R | S | R | R | R | R | R | R | S | S | S | S | S | – | S | S | S | – | – | – | –
3 | Cc1onc(-c2ccccc2)c1C(=O)N[C@@H]1C(=O)N2[C@@H]1SC(C)(C)[C@@H]2C(=O)O [Oxacillin] | R | R | R | R | R | R | R | R^c | S | S | S | S | S | S | S | S | S | – | – | – | –
4 | CC(=O)N[C@H](CCCCN)C(=O)N[C@H](CC(C)C)C(=O)N[C@H](CCCCN)C(=O)N[C@H](CO)C(=O)N[C@H](CC(C)C)C(=O)N[C@H](CC(C)C)C(=O)N[C@H](CCCCN)C(=O)N[C@@H](C(=O)N[C@H](CC(C)C)C(=O)N[C@H](CO)C(=O)N[C@H](CCCCN)C(=O)N[C@H](C)C(=O)N[C@H](CCCCN)C(=O)N[C@H](C)C(=O)N[C@H](C)C(=O)N[C@H](CCCCN)C(=O)N[C@H](CC(C)C)C(=O)N[C@H](CCCCN)C(=O)N[C@@H](C(=O)N[C@H](CC(C)C)C(=O)N[C@H](CC(C)C)C(=O)N[C@H](CCCCN)C(=O)N[C@H](C)C(=O)N[C@H](CC(C)C)C(=O)N[C@H](CO)C(=O)N[C@H](CCCCN)C(N)=O)[C@H](C)O)[C@H](C)O [Peptide D84, Ac-KL(Lys)SLL(Lys)TLS(Lys)AKAAKL(Lys)TLL(Lys)ALS(Lys)-amide] | – | – | – | – | – | – | – | – | – | – | – | – | – | – | – | – | – | 0.3 (≈ 0.86 µg/mL) | 0.7 (≈ 2.01 µg/mL) | 0.3 (≈ 0.86 µg/mL) | MIC ([3]; strain MB9952 (Table 9C)): 0.7 µM (≈ 2.01 µg/mL); MIC ([3]; strain MB9953 (Table 9C)): 0.7 µM (≈ 2.01 µg/mL); MIC ([3]; strain MB9955 (Table 9C)): 0.3 µM (≈ 0.86 µg/mL); MIC ([3]; strain MB9963 (Table 9C)): 0.7 µM (≈ 2.01 µg/mL); HC50 at 18 h [4]: 156 µg/mL
5 | CC(=O)N[C@H](CCCCN)C(=O)N[C@H](CC(C)C)C(=O)N[C@H](CCCN)C(=O)N[C@H](CO)C(=O)N[C@H](CC(C)C)C(=O)N[C@H](CC(C)C)C(=O)N[C@H](CCCN)C(=O)N[C@@H](C(=O)N[C@H](CC(C)C)C(=O)N[C@H](CO)C(=O)N[C@H](CCCN)C(=O)N[C@H](C)C(=O)N[C@H](CCCCN)C(=O)N[C@H](C)C(=O)N[C@H](C)C(=O)N[C@H](CCCCN)C(=O)N[C@H](CC(C)C)C(=O)N[C@H](CCCN)C(=O)N[C@@H](C(=O)N[C@H](CC(C)C)C(=O)N[C@H](CC(C)C)C(=O)N[C@H](CCCN)C(=O)N[C@H](C)C(=O)N[C@H](CC(C)C)C(=O)N[C@H](CO)C(=O)N[C@H](CCCN)C(N)=O)[C@H](C)O)[C@H](C)O [Peptide D85, Ac-KL(Orn)SLL(Orn)TLS(Orn)AKAAKL(Orn)TLL(Orn)ALS(Orn)-amide] | – | – | – | – | – | – | – | – | – | – | – | – | – | – | – | – | – | 0.7 (≈ 1.95 µg/mL) | 0.7 (≈ 1.95 µg/mL) | 0.7 (≈ 1.95 µg/mL) | MIC ([3]; strain MB9952 (Table 9C)): 0.4 µM (≈ 1.11 µg/mL); MIC ([3]; strain MB9953 (Table 9C)): 0.4 µM (≈ 1.11 µg/mL); MIC ([3]; strain MB9955 (Table 9C)): 0.4 µM (≈ 1.11 µg/mL); MIC ([3]; strain MB9963 (Table 9C)): 0.4 µM (≈ 1.11 µg/mL); HC50 at 18 h [4]: 406 µg/mL
